According to patent US11306081B2, “Phenylacetamides as inhibitors of rock” (BRISTOL-MYERS SQUIBB COMPANY, priority 2017, dated 2022):

Molecular target: ROCK2 (Homo sapiens (Human), UniProt O75116)
Experiment: ROCK assay (LABCHIP 3000 peptide phosphorylation assay)
Assay type: biochemical
Conditions: 5 μM ATP, 1.5 μM peptide substrate, dose-response
How it was run: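 Rho kinase variants in 20 mM HEPES pH 7.5, 20 mM MgCl2, 0.015% Brij-35, 4 mM DTT, 5 μM ATP, 1.5 μM FITC-AHA-AKRRRLSSLRA-OH peptide; DMSO <2%. EDTA-stopped; phosphorylated/non-phosphorylated peptide separated by microfluidic LabChip readout. Dose-response inhibition curve-fitted to give IC50.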

Chain of ROCK2 (O75116 whole entry, species assumed): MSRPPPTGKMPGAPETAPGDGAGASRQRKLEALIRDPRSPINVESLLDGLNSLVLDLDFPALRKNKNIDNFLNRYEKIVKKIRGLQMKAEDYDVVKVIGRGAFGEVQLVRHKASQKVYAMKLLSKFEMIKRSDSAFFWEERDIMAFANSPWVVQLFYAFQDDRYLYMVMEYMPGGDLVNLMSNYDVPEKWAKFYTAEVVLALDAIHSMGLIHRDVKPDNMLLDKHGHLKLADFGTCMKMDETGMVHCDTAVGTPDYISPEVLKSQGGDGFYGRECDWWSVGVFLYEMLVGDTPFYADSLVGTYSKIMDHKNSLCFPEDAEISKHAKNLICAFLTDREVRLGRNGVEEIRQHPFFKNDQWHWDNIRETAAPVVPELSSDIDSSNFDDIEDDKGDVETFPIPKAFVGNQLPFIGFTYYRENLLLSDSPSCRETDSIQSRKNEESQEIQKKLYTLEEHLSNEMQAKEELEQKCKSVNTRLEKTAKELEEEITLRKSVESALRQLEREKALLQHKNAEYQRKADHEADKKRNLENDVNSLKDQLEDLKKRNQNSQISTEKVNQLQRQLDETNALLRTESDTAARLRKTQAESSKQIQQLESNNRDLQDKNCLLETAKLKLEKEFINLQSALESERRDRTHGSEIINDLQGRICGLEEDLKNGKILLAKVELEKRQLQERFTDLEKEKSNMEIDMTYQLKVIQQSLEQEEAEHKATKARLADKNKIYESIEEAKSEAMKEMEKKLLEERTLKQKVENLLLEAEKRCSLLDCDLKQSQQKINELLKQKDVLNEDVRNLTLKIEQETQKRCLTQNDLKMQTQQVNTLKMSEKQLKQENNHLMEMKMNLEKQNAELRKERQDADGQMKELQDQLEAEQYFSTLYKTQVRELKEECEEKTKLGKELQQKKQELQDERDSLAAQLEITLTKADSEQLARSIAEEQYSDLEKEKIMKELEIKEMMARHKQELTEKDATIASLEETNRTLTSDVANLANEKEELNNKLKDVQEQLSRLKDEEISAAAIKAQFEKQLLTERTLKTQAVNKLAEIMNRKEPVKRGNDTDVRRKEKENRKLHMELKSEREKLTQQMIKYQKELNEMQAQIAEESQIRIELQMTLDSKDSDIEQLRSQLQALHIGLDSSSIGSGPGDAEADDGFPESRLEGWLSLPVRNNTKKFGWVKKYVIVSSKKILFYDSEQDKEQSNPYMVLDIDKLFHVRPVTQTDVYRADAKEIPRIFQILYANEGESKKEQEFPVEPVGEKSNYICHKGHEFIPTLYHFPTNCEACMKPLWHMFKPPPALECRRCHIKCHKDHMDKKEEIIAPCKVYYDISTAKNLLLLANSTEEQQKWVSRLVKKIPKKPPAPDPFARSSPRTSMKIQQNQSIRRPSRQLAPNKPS

Row | IC50 | SMILES
1 | 8 nM | COc1ccc2c(c1)CCc1sc(NC(=O)Cc3ccc(Oc4ncccc4C(N)=O)c(Cl)c3)nc1-2 [Example 116, 2-(2-chloro-4-(2-((7-methoxy-4,5-dihydronaphtho[1,2-d]thiazol-2-yl)amino)-2-oxoethyl)phenoxy)nicotinamide]
2 | 139 nM | COc1ccc2sc(NC(=O)Cc3ccc(Oc4ncccc4C(N)=O)c(OC)c3)nc2c1 [Example 117, 2-(2-methoxy-4-(2-((5-methoxybenzo[d]thiazol-2-yl)amino)-2-oxoethyl)phenoxy)nicotinamide]
3 | 650 nM | COc1cc(CC(=O)Nc2nc3cc(OCC(C)(C)O)ccc3s2)ccc1Oc1ncccc1C(N)=O [Example 118, 2-(4-(2-((5-(2-hydroxy-2-methylpropoxy)benzo[d]thiazol-2-yl)amino)-2-oxoethyl)-2-methoxyphenoxy)nicotinamide]
4 | 6 nM | COc1ccn2nc(NC(=O)Cc3ccc(Oc4ncccc4C(N)=O)c(Br)c3)nc2c1 [Example 119, 2-(2-bromo-4-(2-((7-methoxy-[1,2,4]triazolo[1,5-a]pyridin-2-yl)amino)-2-oxoethyl)phenoxy)nicotinamide]
5 | 23 nM | COc1ccc2c(c1)nc(NC(=O)Cc1ccc(Oc3ncccc3C(N)=O)c(F)c1)n2CC(F)F [Example 120, 2-(4-(2-((1-(2,2-difluoroethyl)-5-methoxy-1H-benzo[d]imidazol-2-yl)amino)-2-oxoethyl)-2-fluorophenoxy)nicotinamide]
6 | 45 nM | NC(=O)c1cccnc1Oc1ccc(CC(=O)Nc2nc3ccc(OC(F)F)nc3s2)cc1Cl [Example 121, 2-(2-chloro-4-(2-((5-(difluoro-methoxy)thiazolo-[5,4-b]pyridin-2-yl)amino)-2-oxoethyl)phenoxy)-nicotinamide]
7 | 97 nM | NC(=O)c1cccnc1Oc1ccc(CC(=O)Nc2n[nH]c3ccccc23)cc1Cl [Example 122, 2-(4-(2-((1H-indazol-3-yl)-amino)-2-oxoethyl)-2-chlorophenoxy)-nicotinamide]
8 | 18 nM | COc1ccc2nc(NC(=O)Cc3ccc(Oc4ncccc4C(N)=O)c(F)c3)n(CC(F)F)c2c1 [Example 123, 2-(4-(2-((1-(2,2-difluoroethyl)-6-methoxy-1H-benzo-[d]imidazol-2-yl)-amino)-2-oxoethyl)-2-fluorophenoxy)-nicotinamide]
9 | 68.5 nM | COc1ccn2nc(NC(=O)Cc3ccc(Oc4ncccc4C(N)=O)cc3)nc2c1 [Example 124, 2-(4-(2-((7-methoxy-[1,2,4]-triazolo[1,5-a]-pyridin-2-yl)-amino)-2-oxo-ethyl)phenoxy)-nicotinamide]
10 | 12 nM | COc1ccn2nc(NC(=O)Cc3ccc(Oc4ncccc4C(N)=O)c(Cl)c3)nc2c1 [Example 125, 2-(2-chloro-4-(2-((7-methoxy-[1,2,4]triazolo-[1,5-a]pyridin-2-yl)amino)-2-oxoethyl)phenoxy)-nicotinamide]
11 | 82 nM | NC(=O)c1cccnc1Oc1ccc(CC(=O)Nc2nc3cccc(C(F)(F)F)n3n2)cc1F [Example 126, 2-(2-fluoro-4-(2-oxo-2-((5-(trifluoro-methyl)-[1,2,4]-triazolo[1,5-a]-pyridin-2-yl)amino)-ethyl)phenoxy)-nicotinamide]
12 | 127 nM | NC(=O)c1cccnc1Oc1ccc(CC(=O)Nc2nc3c(F)cccn3n2)cc1F [Example 127, 2-(2-fluoro-4-(2-((8-fluoro-[1,2,4]-triazolo[1,5-a]-pyridin-2-yl)amino)-2-oxoethyl)phenoxy)-nicotinamide]
13 | 301 nM | NC(=O)c1cccnc1Oc1ccc(CC(=O)Nc2nc3ccc(F)cn3n2)cc1F [Example 128, 2-(2-fluoro-4-(2-((6-fluoro-[1,2,4]-triazolo[1,5-a]-pyridin-2-yl)amino)-2-oxoethyl)phenoxy)-nicotinamide]
14 | 69 nM | NC(=O)c1cccnc1Oc1ccc(CC(=O)Nc2nc3ccc(C(F)(F)F)cn3n2)cc1F [Example 129, 2-(2-fluoro-4-(2-oxo-2-((6-(trifluoromethyl)-[1,2,4]triazolo-[1,5-a]pyridin-2-yl)amino)ethyl)-phenoxy)nicotin-amide]
15 | 23 nM | Cc1cc2nc(NC(=O)Cc3ccc(Oc4ncccc4C(N)=O)c(F)c3)nn2cc1C [Example 130, 2-(4-(2-((6,7-dimethyl-[1,2,4]-triazolo[1,5-a]-pyridin-2-yl)-amino)-2-oxoethyl)-2-fluorophenoxy)-nicotinamide]
16 | 129 nM | Cc1ccc2nc(NC(=O)Cc3ccc(Oc4ncccc4C(N)=O)c(F)c3)nn2c1C [Example 131, 2-(4-(2-((5,6-dimethyl-[1,2,4]-triazolo[1,5-a]-pyridin-2-yl)-amino)-2-oxoethyl)-2-fluorophenoxy)-nicotinamide]
17 | 129 nM | NC(=O)c1cccnc1Oc1ccc(CC(=O)Nc2nc3cc(C(F)(F)F)ccn3n2)cc1F [Example 132, 2-(2-fluoro-4-(2-oxo-2-((7-(trifluoro-methyl)-[1,2,4]-triazolo[1,5-a]-pyridin-2-yl)amino)-ethyl)phenoxy)-nicotinamide]
18 | 198 nM | NC(=O)c1cccnc1Oc1ccc(CC(=O)Nc2cn3cc(C(F)(F)F)ccc3n2)cc1F [Example 133, 2-(2-fluoro-4-(2-oxo-2-((6-(trifluoro-methyl)imidazo-[1,2-a]pyridin-2-yl)amino)ethyl)-phenoxy)nicotin-amide]
19 | 44 nM | NC(=O)c1cccnc1Oc1ccc(CC(=O)Nc2nc3cc(Br)ccn3n2)cc1F [Example 134, 2-(4-(2-((7-bromo-[1,2,4]triazolo[1,5-a]pyridin-2-yl)amino)-2-oxoethyl)-2-fluorophenoxy)nicotinamide]
20 | 25 nM | NC(=O)c1cccnc1Oc1ccc(CC(=O)Nc2nc3cc(-c4cnn(C(F)F)c4)ccn3n2)cc1F [Example 135, 2-(4-(2-((7-(1-(difluoro-methyl)-1H-pyrazol-4-yl)-[1,2,4]-triazolo[1,5-a]pyridin-2-yl)amino)-2-oxoethyl)-2-fluorophen-oxy)nicotin-amide]
21 | 11 nM | Cc1nn(C)cc1-c1ccn2nc(NC(=O)Cc3ccc(Oc4ncccc4C(N)=O)c(F)c3)nc2c1 [Example 136, 2-(4-(2-((7-(1,3-dimethyl-1H-pyrazol-4-yl)-[1,2,4]-triazolo[1,5-a]pyridin-2-yl)amino)-2-oxoethyl)-2-fluorophen-oxy)nicotin-amide]
22 | 13 nM | Cn1nccc1-c1ccn2nc(NC(=O)Cc3ccc(Oc4ncccc4C(N)=O)c(F)c3)nc2c1 [Example 137, 2-(2-fluoro-4-(2-((7-(1-methyl-1H-pyrazol-5-yl)-[1,2,4]-triazolo[1,5-a]pyridin-2-yl)amino)-2-oxoethyl)-phenoxy) nicotinamide]
23 | 39 nM | Cn1nccc1-c1ccc2nc(NC(=O)Cc3ccc(Oc4ncccc4C(N)=O)c(F)c3)nn2c1 [Example 138, 2-(2-fluoro-4-(2-((6-(1-methyl-1H-pyrazol-5-yl)-[1,2,4]triazolo[1,5-a]pyridin-2-yl)amino)-2-oxoethyl)phenoxy)nicotinamide]
24 | 25 nM | NC(=O)c1cccnc1Oc1ccc(CC(=O)Nc2nc3c(OC(F)F)cccn3n2)cc1F [Example 139, 2-(4-(2-((8-(difluoromethoxy)-[1,2,4]triazolo[1,5-a]pyridin-2-yl)amino)-2-oxoethyl)-2-fluorophenoxy)nicotinamide]
25 | 93 nM | NC(=O)c1cccnc1Oc1ccc(CC(=O)Nc2nc3ccc(OC(F)(F)F)cn3n2)cc1F [Example 140, 2-(2-fluoro-4-(2-oxo-2-((6-(trifluoromethoxy)-[1,2,4]triazolo[1,5-a]pyridin-2-yl)amino)ethyl)phenoxy)nicotinamide]
